Consider one sequence from patent publication US12304931B2, “MENTSH analogs as therapeutics for diabetes, obesity, and their associated diseases and complications” (University of Southern California, priority 2016, dated 2025).

Ends that are not written are not given here.

A short description of this data set: Pharmacokinetics of injected peptide in mice (ELISA). In kind it is in vivo. The following applies: ELISA detection. An excerpt: FIG. 19. Detection of MENTSH mRNA and peptide and pharmacokinetics of injected peptide in mice. Northern blot hybridization identified the presence of MENTSH transcript in mitochondrial mRNA.
Northern blot hybridization identified the presence of MENTSH transcript in mitochondrial mRNA (FIG. 19). Further, the Inventors developed an ELISA assay for detection of MENTSH. […] Increasing persistent bioavailability of MENTSH by analogs, or other artificial modifications may further improve biological effects for therapeutic use.

“MKPNPATQNLSMLLNYPH [MENTSH, MKPNPATQNLSMLLNYPH]”: the “persistence of injected peptide” value was about 1 h.
